Measurements: patent US11195594B2, “Method for selecting anticancer agent based on protein damage information of individual to prevent anticancer agent side effects” (CIPHEROME, INC., priority 2015, dated 2021)

Assay: Side effect profile of pediatric leukemia patients during busulfan preconditioning for bone marrow transplantation
Type: in vivo, human
Procedure: Firstly, an analysis was conducted on 146 pediatric leukemia patients showing warning signs of serious side effects during treatment with the anticancer agent busulfan (Myleran, GlaxoSmithKline, Busulfex IV, Otsuka America Pharmaceutical, Inc.) to remove bone marrow as a preconditioning for bone marrow transplantation.

[1] = of 146 pediatric leukemia patients treated with busulfan

## CS(=O)(=O)OCCCCOS(C)(=O)=O [Busulfan]
human, in vivo
  Number of patients: AUC 170 or higher: 71
  Number of patients: Hepatic veno-occlusive disease: 18
  Number of patients: Intermediate toxicity grade 3 or higher: 11
  Number of patients: Intermediate toxicity grade 4 or higher: 1
  Number of patients: Short-term toxicity grade 3 or higher: 31
  Number of patients: Short-term toxicity grade 4 or higher: 2
[1]
  Number of patients: Death: 36
  Number of patients: Toxicity-related death: 22
